Results on two substances are retold here after EP4733400A1, “ANTISENSE OLIGONUCLEOTIDE TARGETING HIC-5” (SHOWA Medical University, priority 2023, dated 2025).

In the data set the test system is Hic-5. Briefly: Condition 8: Hic-5 expression by RT-PCR, human HSCs, ASO 5 µM without transfection reagent, 72 hours. The data set is classed as cell-based. The following applies: ratio, mean±SEM.

{TEG-Chol} = cholesterol attached via TEG linker; l = locked nucleic acid (LNA); {Toco} = tocopherol conjugate; d = 2'-deoxy (DNA)

Turning to “H26_toco: modified at the 5' end of H26 with tocopherol; GCTCGTGGAAACCCTC; LNA 1-3,14-16; SEQ ID NO 459 (sugars from the 5' end l3 d10 l3, 5' {Toco}, backbone and methylation of C not given here)”, the “Expression Inhibition Rate (4) Condition 8 (n=2)” value came out at 0.738±0.010.

Regarding “H26_cho: modified at the 5' end of H26 with TEG-cholesterol; GCTCGTGGAAACCCTC; LNA 1-3,14-16; SEQ ID NO 458 (sugars from the 5' end l3 d10 l3, 5' {TEG-Chol}, backbone and methylation of C not given here)”, the “Expression Inhibition Rate (4) Condition 8 (n=2)” value stood at 0.161±0.110.
